Among the data in patent US20230348442A1, “GALECTIN-3 INHIBITING 2-HYDROXYCYCLOALKANE-1-CARBAMOYL DERIVATIVES” (Idorsia Pharmaceuticals Ltd, priority 2020, published 2023) are IC50 values, retold here.

Sequence of human Gal-3 (hGal-3) (P17931 whole entry): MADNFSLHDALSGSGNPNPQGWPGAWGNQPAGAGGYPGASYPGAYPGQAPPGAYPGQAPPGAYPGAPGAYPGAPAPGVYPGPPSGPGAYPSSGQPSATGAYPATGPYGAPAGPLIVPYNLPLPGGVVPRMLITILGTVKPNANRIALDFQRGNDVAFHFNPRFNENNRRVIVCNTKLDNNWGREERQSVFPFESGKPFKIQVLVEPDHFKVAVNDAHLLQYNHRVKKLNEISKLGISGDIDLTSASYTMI

This assay has as its target human Gal-3 (hGal-3) (Homo sapiens (Human), UniProt P17931). The assay can be described thus: competitive binding assay: binding of biotinylated hGal-3 to microplate-adsorbed asialofetuin (ASF), spectrophotometric. Conditions: Activity on hGal-3; mean values of several measurements. The method, boiled down: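 Compounds diluted in DMSO competed with biotinylated hGal-3 or hGal-1 (300-1000 ng/mL) for binding to plate-adsorbed asialofetuin for 3 h at 4° C. Bound galectin was detected with streptavidin-peroxidase (80 ng/mL, 1 h, 4° C) and ABTS substrate; IC50 reported as mean of several measurements.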
In the case of `CO[C@@H]1[C@@H](n2cc(-c3ccc(Br)c(F)c3F)nn2)[C@@H](O)[C@@H](CO)O[C@H]1C(=O)N(c1cc(Cl)cc(Cl)c1)[C@H]1CC[C@@H]1O` [Example 2.12.2, (2R,3R,4S,5R,6R)-4-(4-(4-bromo-2,3-difluorophenyl)-1H-1,2,3-triazol-1-yl)-N-(3,5-dichlorophenyl)-5-hydroxy-N-((1S,2S)-2-hydroxycyclobutyl)-6-(hydroxymethyl)-3-methoxytetrahydro-2H-pyran-2-carboxamide], the IC50 (as a rule, the concentration that inhibits the measured activity by half) was 180 nM.

Regarding `CO[C@@H]1[C@@H](n2cc(-c3ccc(C)c(F)c3)nn2)[C@@H](O)[C@@H](CO)O[C@H]1C(=O)N(c1cc(Br)cc(C#N)c1)[C@@H]1CCC[C@H]1O` [Example 1.13.5R, (2R,3R,4S,5R,6R)-N-(3-bromo-5-cyanophenyl)-4-(4-(3-fluoro-4-methylphenyl)-1H-1,2,3-triazol-1-yl)-5-hydroxy-N-((1R,2R)-2-hydroxycyclopentyl)-6-(hydroxymethyl)-3-methoxytetrahydro-2H-pyran-2-carboxamide], the IC50 was 167 nM. This IC50 and that of the compound before are within 1.5-fold of each other.

In the case of `CO[C@@H]1[C@@H](n2cc(-c3ccc(Br)c(F)c3F)nn2)[C@@H](O)[C@@H](CO)O[C@H]1C(=O)N(c1cc(Cl)cc(C#N)c1)[C@@H]1CCC[C@H]1O` [Example 1.12.4R, (2R,3R,4S,5R,6R)-4-(4-(4-bromo-2,3-difluorophenyl)-1H-1,2,3-triazol-1-yl)-N-(3-chloro-5-cyanophenyl)-5-hydroxy-N-((1R,2R)-2-hydroxycyclopentyl)-6-(hydroxymethyl)-3-methoxytetrahydro-2H-pyran-2-carboxamide], the IC50 is 90.7 nM.

With `CO[C@@H]1[C@@H](n2cc(-c3cc(F)c(Cl)c(F)c3)nn2)[C@@H](O)[C@@H](CO)O[C@H]1C(=O)N(c1cc(Br)cc(C#N)c1)[C@@H]1CC[C@H]1O` [Example 2.5.5R, (2R,3R,4S,5R,6R)-N-(3-bromo-5-cyanophenyl)-4-(4-(4-chloro-3,5-difluorophenyl)-1H-1,2,3-triazol-1-yl)-5-hydroxy-N-((1R,2R)-2-hydroxycyclobutyl)-6-(hydroxymethyl)-3-methoxytetrahydro-2H-pyran-2-carboxamide], the IC50 turned out to be 184 nM.

The compound `CO[C@@H]1[C@@H](n2cc(-c3cccc(F)c3)nn2)[C@@H](O)[C@@H](CO)O[C@H]1C(=O)N(c1cc(Cl)cc(C#N)c1)[C@@H]1CCC[C@H]1O` [Example 1.15.4R, (2R,3R,4S,5R,6R)-N-(3-chloro-5-cyanophenyl)-4-(4-(3-fluorophenyl)-1H-1,2,3-triazol-1-yl)-5-hydroxy-N-((1R,2R)-2-hydroxycyclopentyl)-6-(hydroxymethyl)-3-methoxytetrahydro-2H-pyran-2-carboxamide] showed an IC50 of 838 nM.

`CO[C@@H]1[C@@H](n2cc(-c3ccc(Cl)c(Cl)c3)nn2)[C@@H](O)[C@@H](CO)O[C@H]1C(=O)N(c1cc(Br)cc(C#N)c1)[C@H]1CCC[C@@H]1O` [Example 1.8.5, (2R,3R,4S,5R,6R)-N-(3-bromo-5-cyanophenyl)-4-(4-(3,4-dichlorophenyl)-1H-1,2,3-triazol-1-yl)-5-hydroxy-N-((1S,2S)-2-hydroxycyclopentyl)-6-(hydroxymethyl)-3-methoxytetrahydro-2H-pyran-2-carboxamide] returned an IC50 of 40.8 nM.

In turn, `CO[C@@H]1[C@@H](n2cc(-c3cc(F)c(Cl)c(F)c3)nn2)[C@@H](O)[C@@H](CO)O[C@H]1C(=O)N(c1cc(Br)cc(C#N)c1)[C@H]1CC[C@@H]1O` [Example 2.5.5, (2R,3R,4S,5R,6R)-N-(3-bromo-5-cyanophenyl)-4-(4-(4-chloro-3,5-difluorophenyl)-1H-1,2,3-triazol-1-yl)-5-hydroxy-N-((1S,2S)-2-hydroxycyclobutyl)-6-(hydroxymethyl)-3-methoxytetrahydro-2H-pyran-2-carboxamide] registered an IC50 of 47 nM.
